The target in assay [1] is T1, full length N-terminally FLAG-tagged PARP1 (Homo sapiens, UniProt P09874). In words: PARP1 probe displacement HTRF assay. As to conditions: for Kd: binned Kd, PARP1 probe displacement HTRF; for Selectivity: PARP1 over PARP2, ratio Kd (PARP2)/Kd (PARP1), probe displacement HTRF. (In general: In TR-FRET formats the signal depends on donor and acceptor labels being close together.)

In assay [2] the target is T1, full length N-terminally FLAG-tagged PARP1. Put plainly: PARP1 biochemical DELFIA assay (auto-PARylation). The arrangement: recombinant full length human N-terminally FLAG-tagged PARP1. The conditions noted are these: binned IC50, PARP1 biochemical DELFIA assay.
Assay [3] concerns the target T2, N-terminally FLAG-tagged PARP2 (amino acids 1-583) (Homo sapiens, UniProt Q9UGN5).
T2 construct: N-terminally FLAG-tagged PARP2 (amino acids 1-583)
In words: PARP2 probe displacement HTRF assay. The format is binding. As to conditions: binned Kd, PARP2 probe displacement HTRF. Here is the method: Data analysis was performed identical as for PARP1.

Molecules are shown by their SMILES. Read-outs that look alike come from different tables or passages of the source.

T2 sequence (Q9UGN5 whole entry, the tested form may be a part): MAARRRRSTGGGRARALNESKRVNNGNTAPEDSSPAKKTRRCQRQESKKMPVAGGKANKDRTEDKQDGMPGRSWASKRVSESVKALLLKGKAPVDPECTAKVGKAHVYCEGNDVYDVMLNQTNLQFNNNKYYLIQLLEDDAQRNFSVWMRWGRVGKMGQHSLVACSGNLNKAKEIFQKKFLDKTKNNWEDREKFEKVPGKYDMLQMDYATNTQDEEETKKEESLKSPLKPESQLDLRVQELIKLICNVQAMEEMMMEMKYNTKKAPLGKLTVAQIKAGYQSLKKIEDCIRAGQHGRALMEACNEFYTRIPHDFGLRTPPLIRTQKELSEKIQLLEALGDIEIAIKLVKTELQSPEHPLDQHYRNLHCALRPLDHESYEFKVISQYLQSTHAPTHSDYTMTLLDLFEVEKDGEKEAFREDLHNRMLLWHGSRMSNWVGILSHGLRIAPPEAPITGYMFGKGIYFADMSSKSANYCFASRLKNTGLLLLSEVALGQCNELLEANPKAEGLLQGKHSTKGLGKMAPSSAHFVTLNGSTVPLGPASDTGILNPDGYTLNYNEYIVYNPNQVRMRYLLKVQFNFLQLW
T1 sequence (P09874 whole entry): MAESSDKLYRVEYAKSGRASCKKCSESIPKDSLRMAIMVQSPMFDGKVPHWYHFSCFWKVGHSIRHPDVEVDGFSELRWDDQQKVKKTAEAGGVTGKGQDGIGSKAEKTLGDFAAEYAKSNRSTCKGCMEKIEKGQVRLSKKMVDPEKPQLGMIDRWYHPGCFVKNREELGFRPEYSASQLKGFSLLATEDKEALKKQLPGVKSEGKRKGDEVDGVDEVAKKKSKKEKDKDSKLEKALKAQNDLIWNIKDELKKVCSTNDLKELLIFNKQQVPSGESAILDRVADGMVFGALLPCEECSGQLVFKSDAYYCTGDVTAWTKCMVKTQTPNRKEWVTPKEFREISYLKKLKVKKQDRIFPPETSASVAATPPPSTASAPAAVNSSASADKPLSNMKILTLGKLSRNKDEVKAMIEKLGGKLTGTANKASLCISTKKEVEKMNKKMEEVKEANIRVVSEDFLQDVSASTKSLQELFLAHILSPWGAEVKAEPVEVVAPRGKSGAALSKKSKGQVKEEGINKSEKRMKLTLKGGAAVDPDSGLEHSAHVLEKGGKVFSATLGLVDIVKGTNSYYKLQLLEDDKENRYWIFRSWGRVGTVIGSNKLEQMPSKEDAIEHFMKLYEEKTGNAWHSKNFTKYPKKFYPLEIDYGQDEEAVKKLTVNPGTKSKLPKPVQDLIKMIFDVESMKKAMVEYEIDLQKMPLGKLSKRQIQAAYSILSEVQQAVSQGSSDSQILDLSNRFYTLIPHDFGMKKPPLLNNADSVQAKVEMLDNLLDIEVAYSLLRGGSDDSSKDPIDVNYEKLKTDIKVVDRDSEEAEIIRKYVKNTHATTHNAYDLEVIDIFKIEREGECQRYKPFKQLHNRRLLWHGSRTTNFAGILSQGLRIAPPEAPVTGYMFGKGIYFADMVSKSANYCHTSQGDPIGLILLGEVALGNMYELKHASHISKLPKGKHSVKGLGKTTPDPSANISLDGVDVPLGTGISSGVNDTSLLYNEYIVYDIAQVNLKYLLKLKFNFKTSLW

What is called IC50 is the point on the concentration scale where inhibition reaches its midpoint. Regarding `CNC(=O)c1ccc(N2CCC(N3CCC(c4nc5c(Cl)cccc5c(=O)[nH]4)C3)CC2)cn1` (single isomer, unassigned) [Compound 52b, 5-(4-(3-(8-chloro-4-oxo-3,4-dihydroquinazolin-2-yl)pyrrolidin-1-yl)piperidin-1-yl)-N-methylpicolinamide], the Kd in assay [1] (PARP1 HTRF) is below 10 nM; in assay [3], 100 to 1000 nM. In assay [1], the Selectivity result was “+++ (+++ indicate a value of at least 100)”. Also, the IC50 in assay [2] is below 10 nM.
Turning to `CCc1ccc(C2CCCN(C3CCN(c4ccc(C(=O)NC)nc4)CC3)C2)[nH]c1=O` (single isomer, unassigned) [Compound 53a, 5-{4-[3-(5-ethyl-6-oxo-1H-pyridin-2-yl)piperidin-1-yl]piperidin-1-yl}-N-methylpyridine-2-carboxamide], the Kd was below 10 nM in assay [1] (PARP1 HTRF) and 1000 to 10000 nM in assay [3]. Besides, the Selectivity entry in assay [1] is listed as “+++ (+++ indicate a value of at least 100)”. In addition, in assay [2], the IC50 is below 10 nM.
As to `CCc1ccc(C2CCCN(C3CCN(c4ccc(C(=O)NC)nc4)CC3)C2)[nH]c1=O` (single isomer, unassigned) [Compound 53b, 5-{4-[3-(5-ethyl-6-oxo-1H-pyridin-2-yl)piperidin-1-yl]piperidin-1-yl}-N-methylpyridine-2-carboxamide], the Kd was 100 to 1000 nM in assay [1] (PARP1 HTRF) and above 10000 nM in assay [3]. For the same compound, the Selectivity result in assay [1] is “+ (+ indicates a value of 10 to less than 50)”. For the same compound, the IC50 in assay [2] is 100 to 1000 nM.
On to `N#Cc1ccc(N2CCC(N3CCC(c4nc5ccccc5c(=O)[nH]4)C3)CC2)nc1` (single isomer, unassigned) [Compound 55a], for which the Selectivity entry in assay [1] is on record as “+++ (+++ indicate a value of at least 100)”. Besides, the figures for the Kd in assay [1] (read-out: PARP1 HTRF) and in assay [3] were below 10 nM and 1000 to 10000 nM, respectively. For the same compound, the IC50 in assay [2] was below 10 nM.
As to `N#Cc1ccc(N2CCC(N3CCC(c4nc5ccccc5c(=O)[nH]4)C3)CC2)nc1` (single isomer, unassigned) [Compound 55b], the Selectivity result in assay [1] was “− (− indicates a value of less than 10)”. In addition, the figures for the Kd in assay [1] (read-out: PARP1 HTRF) and in assay [3] were 10 to 100 nM and 100 to 1000 nM, respectively. Further, the IC50 in assay [2] was 10 to 100 nM.
For `CNC(=O)c1ccc(N2CCC(N3CCC(c4ncc(C(F)(F)F)c(=O)[nH]4)C3)CC2)cn1` (single isomer, unassigned) [Compound 56a], in assay [1], the Selectivity result is “++ (++ indicates a value of 50 to less than 100)”. Besides, the Kd in assay [1] (read-out: PARP1 HTRF) is 10 to 100 nM; in assay [3], above 10000 nM. The IC50 in assay [2] fell in the range of 100 to 1000 nM.
As to `CNC(=O)c1ccc(N2CCC(N3CCC(c4ncc(C(F)(F)F)c(=O)[nH]4)C3)CC2)cn1` (single isomer, unassigned) [Compound 56b], the Selectivity entry in assay [1] is reported as “− (− indicates a value of less than 10)”. Also, the Kd in assay [1] (read-out: PARP1 HTRF) is 100 to 1000 nM; in assay [3] it was above 10000 nM. For the same compound, the IC50 in assay [2] was in the range of 1000 to 10000 nM.
For `CNC(=O)c1ccc(N2CCC(N3CCCC(Cc4nc5ccccc5c(=O)[nH]4)C3)CC2)cn1` (single isomer, unassigned) [Compound 57a], in assay [1], the Selectivity result is reported as “+++ (+++ indicate a value of at least 100)”. Besides, the Kd in assay [1] (read-out: PARP1 HTRF) was 10 to 100 nM; in assay [3], above 10000 nM. The IC50 in assay [2] was below 10 nM.
In the same order, the values of `CNC(=O)c1ccc(N2CCC(N3CCCC(Cc4nc5ccccc5c(=O)[nH]4)C3)CC2)cn1` (single isomer, unassigned) [Compound 57b] are “+ (+ indicates a value of 10 to less than 50)”, 100 to 1000 nM, above 10000 nM and 100 to 1000 nM.
In the same order, the values of `CNC(=O)c1ccc(N2CCC(N3CCOC(c4nc5ccccc5c(=O)[nH]4)C3)CC2)cn1` (single isomer, unassigned) [Compound 58a] are “+++ (+++ indicate a value of at least 100)”, below 10 nM, above 10000 nM and below 10 nM.
For the compound `CNC(=O)c1ccc(N2CCC(N3CCOC(c4nc5ccccc5c(=O)[nH]4)C3)CC2)cn1` (single isomer, unassigned) [Compound 58b], the Selectivity entry in assay [1] is recorded as “++ (++ indicates a value of 50 to less than 100)”. The Kd was 10 to 100 nM in assay [1] (read-out: PARP1 HTRF) and above 10000 nM in assay [3]. For the same compound, the IC50 in assay [2] lay within 10 to 100 nM.
With `CNC(=O)c1ccc(N2CCC(N3CCC(c4nc5ncccc5c(=O)[nH]4)C3)CC2)cn1` (single isomer, unassigned) [Compound 60a], the Selectivity entry in assay [1] is listed as “+++ (+++ indicate a value of at least 100)”. For the same compound, the values for the Kd in assay [1] (read-out: PARP1 HTRF) and in assay [3] were below 10 nM and above 10000 nM, respectively. Besides, the IC50 in assay [2] was below 10 nM.
For the compound `CNC(=O)c1ccc(N2CCC(N3CCC(c4nc5ncccc5c(=O)[nH]4)C3)CC2)cn1` (single isomer, unassigned) [Compound 60b], the Selectivity result in assay [1] was “++ (++ indicates a value of 50 to less than 100)”. Moreover, the results for the Kd in assay [1] (read-out: PARP1 HTRF) and in assay [3] were 10 to 100 nM and above 10000 nM, respectively. For the same compound, in assay [2], the IC50 lay within 100 to 1000 nM.
On to `CNC(=O)c1ccc(N2CC(N3CCC(c4nc5ccccc5c(=O)[nH]4)C3)C2)cn1` (single isomer, unassigned) [Compound 61a], for which the Selectivity entry in assay [1] is “+ (+ indicates a value of 10 to less than 50)”. Also, the values for the Kd in assay [1] (read-out: PARP1 HTRF) and in assay [3] were 10 to 100 nM and 1000 to 10000 nM, respectively. For the same compound, in assay [2], the IC50 fell in the range of 100 to 1000 nM.
For `CNC(=O)c1ccc(N2CC(N3CCC(c4nc5ccccc5c(=O)[nH]4)C3)C2)cn1` (single isomer, unassigned) [Compound 61b] the same measures were “+++ (+++ indicate a value of at least 100)”, below 10 nM, 1000 to 10000 nM and below 10 nM.
For `CNC(=O)c1ccc(OCCN2CCC(c3nc4ccccc4c(=O)[nH]3)C2)cn1` (single isomer, unassigned) [Compound 62a] the same measures were “++ (++ indicates a value of 50 to less than 100)”, 10 to 100 nM, 1000 to 10000 nM and 10 to 100 nM.
In the same order, the values of `CNC(=O)c1ccc(OCCN2CCC(c3nc4ccccc4c(=O)[nH]3)C2)cn1` (single isomer, unassigned) [Compound 62b] are “− (− indicates a value of less than 10)”, 100 to 1000 nM, 1000 to 10000 nM and 100 to 1000 nM.
Turning to `CNC(=O)c1ccc(N2CCC(N3CCC(c4nc5ccc(F)cc5c(=O)[nH]4)C3)CC2)cn1` (single isomer, unassigned) [Compound 64a], in assay [1], the Selectivity result is “+ (+ indicates a value of 10 to less than 50)”. Besides, the Kd in assay [1] (read-out: PARP1 HTRF) was below 10 nM; in assay [3], 100 to 1000 nM. Further, the IC50 in assay [2] was below 10 nM.
As to `CNC(=O)c1ccc(OCCN2CCCC(c3nc4ccccc4c(=O)[nH]3)C2)cn1` (single isomer, unassigned) [Compound 65a], the Selectivity result in assay [1] is recorded as “+++ (+++ indicate a value of at least 100)”. Moreover, the figures for the Kd in assay [1] (read-out: PARP1 HTRF) and in assay [3] were below 10 nM and 100 to 1000 nM, respectively. In assay [2], the IC50 is below 10 nM.
For `CNC(=O)c1ccc(OCCN2CCCC(c3nc4ccccc4c(=O)[nH]3)C2)cn1` (single isomer, unassigned) [Compound 65b], in assay [1], the Selectivity entry is “+ (+ indicates a value of 10 to less than 50)”. Also, the Kd lay in the range of 100 to 1000 nM in assay [1] (read-out: PARP1 HTRF) and 1000 to 10000 nM in assay [3]. Also, in assay [2], the IC50 was 100 to 1000 nM.
On to `CNC(=O)c1ccc(N2CCC(N3CCCC(C)(c4nc5ccccc5c(=O)[nH]4)C3)CC2)cn1` (single isomer, unassigned) [Compound 66a], for which, in assay [1], the Selectivity entry is given as “− (− indicates a value of less than 10)”. Moreover, the figures for the Kd in assay [1] (read-out: PARP1 HTRF) and in assay [3] were 1000 to 10000 nM and above 10000 nM, respectively. Moreover, the IC50 in assay [2] fell in the range of 1000 to 10000 nM.
On to `CNC(=O)c1ccc(N2CCC(N3CCCC(C)(c4nc5ccccc5c(=O)[nH]4)C3)CC2)cn1` (single isomer, unassigned) [Compound 66b], for which the Selectivity result in assay [1] was “− (− indicates a value of less than 10)”. Also, the Kd in assay [1] (read-out: PARP1 HTRF) was 1000 to 10000 nM; in assay [3], above 10000 nM. Moreover, in assay [2], the IC50 lay in the range of 1000 to 10000 nM.
In the case of `CNC(=O)c1ccc(N2CCC(N3CCC(C)(c4nc5ccccc5c(=O)[nH]4)C3)CC2)cn1` (single isomer, unassigned) [Compound 67a], the Selectivity result in assay [1] was “+ (+ indicates a value of 10 to less than 50)”. In addition, the Kd in assay [1] (read-out: PARP1 HTRF) lay within 100 to 1000 nM; in assay [3], 1000 to 10000 nM. Besides, the IC50 in assay [2] lay within 100 to 1000 nM.
For `CNC(=O)c1ccc(N2CCC(N3CCC(C)(c4nc5ccccc5c(=O)[nH]4)C3)CC2)cn1` (single isomer, unassigned) [Compound 67b], the Selectivity result in assay [1] is on record as “+ (+ indicates a value of 10 to less than 50)”. For the same compound, the values for the Kd in assay [1] (read-out: PARP1 HTRF) and in assay [3] were 100 to 1000 nM and 1000 to 10000 nM, respectively. Further, in assay [2], the IC50 is 100 to 1000 nM.
On to `CNC(=O)c1ccc(N2CCC(N3CCC(c4nc5ccc(Cl)cc5c(=O)[nH]4)C3)CC2)cn1` (single isomer, unassigned) [Compound 68b], for which the Selectivity result in assay [1] is “+ (+ indicates a value of 10 to less than 50)”. Also, the Kd in assay [1] (read-out: PARP1 HTRF) is below 10 nM; in assay [3], 100 to 1000 nM. Besides, the IC50 in assay [2] was in the range of 10 to 100 nM.
For `N#Cc1ccc(N2CCC(N3CCC(c4nc5ccccc5c(=O)[nH]4)C3)CC2)cn1` (single isomer, unassigned) [Compound 69a] the same measures were “++ (++ indicates a value of 50 to less than 100)”, 10 to 100 nM, 100 to 1000 nM and below 10 nM.
For `N#Cc1ccc(N2CCC(N3CCC(c4nc5ccccc5c(=O)[nH]4)C3)CC2)cn1` (single isomer, unassigned) [Compound 69b] the same measures were “− (− indicates a value of less than 10)”, 10 to 100 nM, 100 to 1000 nM and 10 to 100 nM.

The values above are taken from patent US20250152585A1, “PHARMACEUTICAL COMPOUND” (Duke Street Bio Limited, priority 2022, published 2025).
